Measured values reported in US11975095B2, “Callus lysate comprising high content of callus metabolite and preparation method thereof” (BIOSPECTRUM, INC., priority 2020, dated 2024).

Assay: Anti-oxidation: DPPH free radical scavenging
Conditions: positive control at 400 μg/ml
Method: The antioxidant activity was evaluated by measuring the ability of scavenging a free radical, DPPH (1,1-diphenyl-2-picrylhydrazyl). DPPH, a radical with a color, was used to directly determine the radical scavenging ability of the sample.
50 μl of each sample of Examples 1 to 13 and Comparative Examples 1 to 5 was mixed with 1 ml of a 100 μM DPPH solution. The resultant mixture was subjected to reaction and incubation at 20° C. (room temperature) at 30 minutes. Then, the amount of the remaining DPPH was determined through the absorbance measurement at 517 nm.
Upon completion of the reaction, the free radical scavenging activity (%) of the sample was calculated according to Equation 3 below. In this regard, the positive control was 400 μg/ml of ascorbic acid, and the blank was purified water. Radical Scavenging Ability (%)={1−(absorbance of sample-added group/absorbance of sample-free group)×100} [Equation 3]

O=C1O[C@H]([C@@H](O)CO)C(O)=C1O [Ascorbic acid]
Free radical scavenging ability: 80.7%
